# Data reported in patent US3974140A, “Ureidoacetamido-penicillins” (Bayer Aktiengesellschaft, priority 1970, dated 1976).
# Where “and” joins values, the source holds several entries; their conditions need not be identical. Equal values may be shown once.
# Key:
# [1] = test system: E. coli 14; assay: MIC, liquid medium test tube series dilution test; type: cell-based; conditions: E. coli 14, 24 hours, 37°C
# Procedure, shortened: (§1)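 Read-out: visual turbidity after 24 h at 37°C. The MIC, in units/ml, corresponds to the non-turbid tube in a liquid-medium test tube dilution series prepared in complete nutrient medium.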
# [2] = test system: E. coli 183/58; assay: MIC, liquid medium test tube series dilution test; type: cell-based; conditions: E. coli 183/58, 24 hours, 37°C
# Procedure, shortened: as §1
# [3] = test system: E. coli A 261; assay: MIC, liquid medium test tube series dilution test; type: cell-based; conditions: E. coli A 261, 24 hours, 37°C
# Procedure, shortened: as §1
# [4] = test system: E. coli C 165; assay: MIC, liquid medium test tube series dilution test; type: cell-based; conditions: E. coli C 165, 24 hours, 37°C
# Procedure, shortened: as §1
# [5] = test system: Klebsiella 63; assay: MIC, liquid medium test tube series dilution test; type: cell-based; conditions: Klebsiella 63, 24 hours, 37°C
# Procedure, shortened: as §1
# [6] = test system: Klebsiella K 10; assay: MIC, liquid medium test tube series dilution test; type: cell-based; conditions: Klebsiella K 10, 24 hours, 37°C
# Procedure, shortened: as §1
# [7] = test system: Streptoc. faec. ATCC 9790; assay: MIC, liquid medium test tube series dilution test; type: cell-based; conditions: Strep. faec. (Enterococcus) ATCC 9790, 24 hours, 37°C
# Procedure, shortened: as §1
# [8] = test system: Proteus vulg. 1017; assay: MIC, liquid medium test tube series dilution test; type: cell-based, Proteus vulgaris; conditions: Proteus vulg. 1017, 24 hours, 37°C
# Procedure, shortened: as §1
# [9] = test system: Proteus vulg. 3400; assay: MIC, liquid medium test tube series dilution test; type: cell-based, Proteus vulgaris; conditions: Proteus vulg. 3400, 24 hours, 37°C
# Procedure, shortened: as §1
# [10] = test system: Psdm. aerug. Bonn; assay: MIC, liquid medium test tube series dilution test; type: cell-based, Pseudomonas aerug.; conditions: 24 hours, 37°C
# Procedure, shortened: as §1
# [11] = test system: Psdm. aerug. Walter; assay: MIC, liquid medium test tube series dilution test; type: cell-based, Pseudomonas aerug.; conditions: 24 hours, 37°C
# Procedure, shortened: as §1
# [12] = test system: Staph. aureus 133; assay: MIC, liquid medium test tube series dilution test; type: cell-based, Staphylococcus aureus; conditions: Staph. aureus 133, 24 hours, 37°C
# Procedure, shortened: as §1
# [13] = test system: Staph. aureus 1777 E; assay: MIC, liquid medium test tube series dilution test; type: cell-based, Staphylococcus aureus; conditions: 24 hours, 37°C
# Procedure, shortened: as §1
# [14] = test system: Gram-negative and Gram-positive bacteria; assay: Antibacterial effect, general statements; conditions: MIC comparison
# [15] = Acute toxicity (LD50), intravenous injection into the vein of the tail; type: in vivo; conditions: mouse, in vivo, iv; i.v. into tail vein, white mice
# Description: Acute toxicity (LD50) in white mice after
# intravenous injection into the vein of the […]
# [16] = test system: Staph. aureus 133; assay: Surviving mice after intraperitoneal infection and subcutaneous therapy; type: in vivo, white mice, CF1 strain; conditions: 2 × 200 units/mouse s.c.
# Experimental: The experiments on animals (see Table 3) were carried out with white mice of the CF1 strain. The infection took place intraperitoneally with the particular bacterium indicated.
# [17] = Serum level after subcutaneous administration, measured from microbiological activity against Proteus vulgaris 1017; type: in vivo, white mice; conditions: 150.000 units s.c.
# Description: Serum level after subcutaneous ("s.c.") administration to white mice, in units/ml of serum, measured from the microbiological activity against Proteus vulgaris 1017 (ampicillin-resistant).
# [18] = Acid stability; type: physicochemical; conditions: pH 1 where stated
Compound,MIC [1],MIC [2],MIC [3],MIC [4],MIC [5],MIC [6],MIC [7],MIC [8],MIC [9],MIC [10],MIC [11],MIC [12],MIC [13],Biological activity compared between penicillin (A) and penicillin (B) [14],further results
"CN(C(=O)N[C@@H](C(=O)N[C@@H]1C(=O)N2[C@@H]1SC(C)(C)[C@@H]2C(=O)O)c1ccccc1)C(=O)OC1CCCCC1 [Example 29, Sodium D(-)-α-(3-cyclohexyloxycarbonyl-3-methyl-ureido)-benzylpenicillin]",3.1 units/ml,3.1 units/ml,> 400 units/ml,6.3 units/ml,100 units/ml,200 units/ml,100 units/ml,12.5 units/ml,12.5 units/ml,25 units/ml,50 units/ml,< 0.8 units/ml,200 units/ml,identical within the limit of error,MIC ([2]; listed as (A) of Example 29): 3.12 units/ml; MIC ([3]; listed as (A) of Example 29): 400 units/ml; MIC ([4]; listed as (A) of Example 29): 6.25 units/ml; MIC ([6]; listed as (A) of Example 29): 200 units/ml; MIC ([8]; listed as (A) of Example 29): 12.5 units/ml; MIC ([9]; listed as (A) of Example 29): 12.5 units/ml; MIC ([12]; listed as (A) of Example 29): < 0.7 units/ml; MIC ([13]; listed as (A) of Example 29): 200 units/ml
"C=CCOC(=O)N(C)C(=O)N[C@@H](C(=O)N[C@@H]1C(=O)N2[C@@H]1SC(C)(C)[C@@H]2C(=O)O)c1ccccc1 [Example 30, Sodium D(-)-α-(3-allyloxycarbonyl-3-methyl-ureido)-benzylpenicillin]",4-20 units/ml,20-100 units/ml,> 500 units/ml,20-100 units/ml,20-100 units/ml and 100-500 units/ml,20-100 units/ml and 100-500 units/ml,20-100 units/ml,100-500 units/ml,100-500 units/ml and 20-100 units/ml,100-500 units/ml,100-500 units/ml,0.8-4 units/ml,,identical within the limit of error,MIC ([1]; listed as (A) of Example 30): 0.8-4 units/ml; MIC ([2]; listed as (A) of Example 30): 4-20 units/ml; MIC ([3]; listed as (A) of Example 30): 100-500 units/ml; MIC ([4]; listed as (A) of Example 30): 4-20 units/ml; MIC ([8]; listed as (A) of Example 30): 20-100 units/ml; MIC ([10]; listed as (A) of Example 30): 4-20 units/ml; MIC ([11]; listed as (A) of Example 30): 20-100 units/ml; MIC ([12]; listed as (A) of Example 30): 0.8-4 units/ml
"CCN(C(=O)N[C@@H](C(=O)N[C@@H]1C(=O)N2[C@@H]1SC(C)(C)[C@@H]2C(=O)O)c1ccccc1)C(=O)c1ccccc1 [Example 60, Sodium D(-)-α-(3-benzoyl-3-ethyl-ureido)-benzylpenicillin]",6.25 units/ml,12.5 units/ml,> 400 units/ml,25 units/ml,50 units/ml,100 units/ml,100 units/ml,25 units/ml,50 units/ml,25 units/ml,50 units/ml,< 0.78 units/ml,50 units/ml,,LD50 [15]: 1500 mg/kg
"CN(C(=O)N[C@@H](C(=O)N[C@@H]1C(=O)N2[C@@H]1SC(C)(C)[C@@H]2C(=O)O)c1ccccc1)C(=O)OC1CCCCC1 [Example 67, Sodium D(-)-α-(3-cyclohexyloxycarbonyl-3-methyl-ureido)-benzylpenicillin]",1.56 units/ml,1.56 units/ml,400 units/ml,6.25 units/ml,100 units/ml,100 units/ml,100 units/ml,6.25 units/ml,6.25 units/ml,25 units/ml,50 units/ml,< 0.78 units/ml,400 units/ml,identical within the limit of error,MIC ([1]; listed as (B) of Example 29): 1.56 units/ml; MIC ([2]; listed as (B) of Example 29): 1.56 units/ml; MIC ([3]; listed as (B) of Example 29): 400 units/ml; MIC ([4]; listed as (B) of Example 29): 6.25 units/ml; MIC ([6]; listed as (B) of Example 29): 100 units/ml; MIC ([8]; listed as (B) of Example 29): 6.25 units/ml; MIC ([9]; listed as (B) of Example 29): 6.25 units/ml; MIC ([12]; listed as (B) of Example 29): < 0.7 units/ml
"CN(C(=O)N[C@@H](C(=O)N[C@@H]1C(=O)N2[C@@H]1SC(C)(C)[C@@H]2C(=O)O)c1ccccc1)C(=O)c1ccccc1 [Example 59, Sodium D(-)-α-(3-benzoyl-3-methyl-ureido)-benzylpenicillin]",1.56 units/ml,3.12 units/ml,> 400 units/ml,6.25 units/ml,50 units/ml,25 units/ml,100 units/ml,6.25 units/ml,12.5 units/ml,12.5 units/ml,25 units/ml,< 0.78 units/ml,100 units/ml,,Number of surviving mice ([16]; 1 day): 90%; Number of surviving mice ([16]; 2 days): 70%; Number of surviving mice ([16]; 3 days): 70%; Number of surviving mice ([16]; 5 days): 70%; Serum level ([17]; 15 mins.): 25 units/ml of serum; Serum level ([17]; 30 mins.): 20 units/ml of serum; Serum level ([17]; 60 mins.): < 2 units/ml of serum; Stability to acid [18]: remain microbiologically active at pH 1 for over one hour
"C=CCOC(=O)N(C)C(=O)N[C@@H](C(=O)N[C@@H]1C(=O)N2[C@@H]1SC(C)(C)[C@@H]2C(=O)O)c1ccccc1 [Example 68, Sodium D(-)-α-(3-allyloxycarbonyl-3-methyl-ureido)-benzylpenicillin]",3.12 units/ml,6.25 units/ml,> 400 units/ml,12.5 units/ml,25 units/ml,50 units/ml,50 units/ml,12.5 units/ml,25 units/ml,12.5 units/ml,12.5 units/ml,< 0.78 units/ml,50 units/ml,identical within the limit of error,MIC ([1]; listed as (B) of Example 30): 3.12 units/ml; MIC ([2]; listed as (B) of Example 30): 6.25 units/ml; MIC ([4]; listed as (B) of Example 30): 12.5 units/ml; MIC ([5]; listed as (B) of Example 30): 25 units/ml; MIC ([6]; listed as (B) of Example 30): 50 units/ml; MIC ([7]; listed as (B) of Example 30): 50 units/ml; MIC ([8]; listed as (B) of Example 30): 12.5 units/ml; MIC ([9]; listed as (B) of Example 30): 25 units/ml; MIC ([10]; listed as (B) of Example 30): 12.5 units/ml; MIC ([11]; listed as (B) of Example 30): 12.5 units/ml; MIC ([12]; listed as (B) of Example 30): 0.78 units/ml
